{"source": "patent US6784176B2", "about": "“Solvates of pymetrozine” (priority 1999, dated 2004)", "experiment": "Reversible water uptake and release of pymetrozine at defined relative humidity", "type": "physicochemical", "conditions": "room temperature", "text": "The above-mentioned water content of 16 to 17% by weight corresponds very well to a dihydrate. Even pesticidal formulations that contain water-free and solvent-free pymetrozine take up usually water or the corresponding solvent from the atmosphere when left to stand under sufficiently high vapour pressure."}
{"smiles": "CC1=NNC(=O)N(/N=C/c2cccnc2)C1", "note": "[pymetrozine]", "values": [{"measurement": "water taken up", "setting": "relative humidity between 60% and 70%", "value": "16 to 17", "unit": "% by weight"}, {"measurement": "water release", "setting": "relative humidity of less than ca. 10%, water-containing pymetrozine", "value": "gives up the water completely"}]}
